Consider two molecules from ChEMBL document CHEMBL3132762, “The effect of a thieno[2,3-b]pyridine PLC- inhibitor on the proliferation, morphology, migration and cell cycle of breast cancer cells” (Medchemcomm, 2014).

Calls of active or inactive are those of the source. The calls are words filed in the database; no cut-off is given here.

The test system of series [1] is MDA-MB-468. The series is described as follows: Cell cycle arrest in human MDA-MB-468 cells assessed as cell accumulation at S phase at 1 uM after 16 to 24 hrs by flow cytometry. In kind it is functional, cell-based. On the technique in general: In flow cytometry, cells or beads pass a laser one at a time.
The subject of series [2] is T47D. The series is described as follows: Inhibition of ER-positive human T47D cell proliferation assessed as [3H]thymidine incorporation into DNA helix after 3 days by betaplate counting analysis. In kind it is functional, cell-based.
Series [3] relates to HBL-100. The series is described as follows: Inhibition of oestrogen, progesterone and HER2/neu receptor triple negative human HBL100 cell proliferation assessed as [3H]thymidine incorporation into DNA helix after 3 days by betaplate counting analysis. The format is functional, cell-based. (Uptake of a labelled nucleoside into DNA is a usual measure of proliferation.)
The nature of series [4]: Inhibition of ER-positive human KPL1 cell proliferation assessed as [3H]thymidine incorporation into DNA helix after 3 days by betaplate counting analysis. In kind it is functional, cell-based. The conditions noted are these: KPL-1.
Series [5] has as its system MDA-MB-435. The series is described as follows: Inhibition of oestrogen, progesterone and HER2/neu receptor triple negative human MDA-MB-435 cell proliferation assessed as [3H]thymidine incorporation into DNA helix after 3 days by betaplate counting analysis. In kind it is functional, cell-based.
Series [6] deals with T47D. Nature of the series: Cell cycle arrest in human T47D cells assessed as cell accumulation at S phase at 1 uM after 16 to 24 hrs by flow cytometry. The format is functional, cell-based.
Series [7] has as its system SK-BR-3. The series is described as follows: Inhibition of HER2-overexpressing human SKBR3 cell proliferation assessed as [3H]thymidine incorporation into DNA helix after 3 days by betaplate counting analysis. In kind it is functional, cell-based.
The subject of series [8] is MDA-MB-231. The series is described as follows: Induction of morphological changes in red fluorescent labelled human MDA-MB-231 cells assessed as rounded-up cells after 16 hrs by microscopic analysis. In kind it is functional, cell-based.
Series [9] is described as follows: Inhibition of ER-positive human TamR6 cell proliferation assessed as [3H]thymidine incorporation into DNA helix after 3 days by betaplate counting analysis. In kind it is functional, cell-based.
Series [10] in a line: Inhibition of ER-positive human TamC3 cell proliferation assessed as [3H]thymidine incorporation into DNA helix after 3 days by betaplate counting analysis. In kind it is functional, cell-based.
Series [11] relates to MDA-MB-231. Nature of the series: Inhibition of red fluorescent mKATE2 labelled human MDA-MB-231 cell migration assessed as displacement of wound edges at 1 uM after 24 hrs by wound healing assay. The format is functional. The conditions noted are these: MDA-MB-231, 24 h.
The subject of series [12] is BT-20. The series is described as follows: Inhibition of oestrogen, progesterone and HER2/neu receptor triple negative human BT20 cell proliferation assessed as [3H]thymidine incorporation into DNA helix after 3 days by betaplate counting analysis. The format is functional, cell-based.
Series [13] deals with MDA-MB-231. Nature of the series: Cell cycle arrest in human MDA-MB-231 cells assessed as cell shifting from dominant G0/G1 phases to G2/M phases at 1 uM after 16 to 24 hrs by flow cytometry. In kind it is functional, cell-based.
In series [14] the test system is MDA-MB-436. The series is described as follows: Inhibition of oestrogen, progesterone and HER2/neu receptor triple negative human MDA-MB-436 cell proliferation assessed as [3H]thymidine incorporation into DNA helix after 3 days by betaplate counting analysis. In kind it is functional.
The test system of series [15] is MDA-MB-231. The series is described as follows: Reduction in red fluorescent mKATE2 labelled human MDA-MB-231 cell number at 1 uM after 24 hrs by fluorescent microscopic analysis. The format is ADME, cell-based. The conditions noted are these: mda-mb-231, 24 h.
Series [16] can be described thus: Inhibition of ER-positive human TamC6 cell proliferation assessed as [3H]thymidine incorporation into DNA helix after 3 days by betaplate counting analysis. The format is functional, cell-based.
The subject of series [17] is MCF7. The series is described as follows: Cell cycle arrest in human MCF7 cells assessed as cell accumulation at S phase at 1 uM after 16 to 24 hrs by flow cytometry. In kind it is functional, cell-based.
For series [18], the system named is MCF7. The series is described as follows: Cell cycle arrest in human MCF7 cells assessed as cell shifting from dominant G0/G1 phases to G2/M phases at 1 uM after 16 to 24 hrs by flow cytometry. The format is functional, cell-based.
For series [19], the system named is MDA-MB-453. Nature of the series: Inhibition of oestrogen, progesterone and HER2/neu receptor triple negative human MDA-MB-453 cell proliferation assessed as [3H]thymidine incorporation into DNA helix after 3 days by betaplate counting analysis. In kind it is functional, cell-based.
In series [20] the test system is MDA-MB-231. Nature of the series: Inhibition of oestrogen, progesterone and HER2/neu receptor triple negative human MDA-MB-231 cell proliferation assessed as [3H]thymidine incorporation into DNA helix after 3 days by betaplate counting analysis. In kind it is functional, cell-based.
Series [21] relates to MDA-MB-468. The series is described as follows: Inhibition of oestrogen, progesterone and HER2/neu receptor triple negative human MDA-MB-468 cell proliferation assessed as [3H]thymidine incorporation into DNA helix after 3 days by betaplate counting analysis. In kind it is functional, cell-based.
Series [22] in a line: Inhibition of ER-positive human TamR3 cell proliferation assessed as [3H]thymidine incorporation into DNA helix after 3 days by betaplate counting analysis. In kind it is functional, cell-based.
Series [23] concerns MCF7. Nature of the series: Inhibition of ER-positive human MCF7 cell proliferation assessed as [3H]thymidine incorporation into DNA helix after 3 days by betaplate counting analysis. The format is functional, cell-based.
Series [24] relates to T47D. The series is described as follows: Cell cycle arrest in human T47D cells assessed as cell shifting from dominant G0/G1 phases to G2/M phases at 1 uM after 16 to 24 hrs by flow cytometry. The format is functional, cell-based.
The test system of series [25] is MDA-MB-231. The series is described as follows: Cell cycle arrest in human MDA-MB-231 cells assessed as cell accumulation at S phase at 1 uM after 16 to 24 hrs by flow cytometry. In kind it is functional, cell-based.
The test system of series [26] is MDA-MB-468. The series is described as follows: Cell cycle arrest in human MDA-MB-468 cells assessed as cell shifting from dominant G0/G1 phases to G2/M phases at 1 uM after 16 to 24 hrs by flow cytometry. In kind it is functional, cell-based.
Series [27] is described as follows: Inhibition of ER-positive human TamR7 cell proliferation assessed as [3H]thymidine incorporation into DNA helix after 3 days by betaplate counting analysis. In kind it is functional, cell-based.
For series [28], the system named is MDA-MB-231. Nature of the series: Growth inhibition of human MDA-MB-231 cells after 3 days by DAPI staining. The format is functional. The note with it: MDA-MB-231, 72 h.
The subject of series [29] is MDA-MB-231. Nature of the series: Induction of morphological changes in red fluorescent labelled human MDA-MB-231 cells assessed as rounded-up cells at 6.25 to 1000 nM after 16 hrs by microscopic analysis. The format is functional, cell-based.

One may read the IC50 as the concentration needed to halve the response being measured. The term inhibition denotes how much of the control response was suppressed. A word on the GI50: it is the concentration that inhibits growth by half. High values mean lower sensitivity of the cells, low ones greater sensitivity of the cells.

`Nc1c(C(=O)Nc2cccc(Cl)c2)sc2nc3c(cc12)C(=O)CCC3`: the result in series [1], in series [6], in [17] and in series [25] was inactive. For the same molecule, the IC50 in series [2] came to 570 nM; in series [3], 265 nM; in series [4], 106 nM; in series [5], 77 nM; in series [7], 138 nM; in series [9], 105 nM. The half-inhibitory concentration (IC50) stood at 122 nM in [10]; 194 nM in series [12]; 157 nM in series [14]; 102 nM in [16]; 186 nM in series [19]; 357 nM in series [20]. In addition, the IC50 in series [21] stood at 163 nM; in series [22] it was 120 nM; in series [23], 125 nM; in [27] it was 154 nM. Moreover, the outcome in series [8], in series [13], in [18], in [24] and in series [26] was Active. Also, the inhibition at 1 µM in [11] stood at 50%. Besides, the Activity result in series [15] is reported as “Toxic”.
`CC(=O)Nc1cccc(-n2c(=O)n(C3CC3)c(=O)c3c(Nc4ccc(I)cc4F)n(C)c(=O)c(C)c32)c1` [TRAMETINIB] had a GI50 in series [28] of 25 nM. Further, in series [29], the result was inactive.
